Assay results: ChEMBL document CHEMBL1152405, “Bis-anthracenyl isoxazolyl amides have enhanced anticancer activity” (Bioorg Med Chem Lett, 2009)
pIC50: −log10 of the molar value.

Columns and labels:
SNB-19 = test: Antitumor activity against human SNB19 cells after 24 hrs; type: functional, cell-based; details: SNB-19, 24 h
COLO 205 = test: Growth inhibition of human COLO205 cells at 10 uM after 24 hrs by MTT assay relative to control; type: functional; set-up: scale not given: the % may be the effect or the level left
HCC 2998 = test: Growth inhibition of human HCC2998 cells at 10 uM after 24 hrs by MTT assay relative to control; type: functional; set-up: scale not given: the % may be the effect or the level left
KM12 [1] = test: Growth inhibition of human KM12 cells at 10 uM after 24 hrs by MTT assay relative to control; type: functional; set-up: scale not given: the % may be the effect or the level left
MCF7 [2] = test: Growth inhibition of human MCF7 cells at 10 uM after 24 hrs by MTT assay relative to control; type: functional; set-up: scale not given: the % may be the effect or the level left
NCI/ADR-RES = test: Growth inhibition of human NCI/ADR-RES cells at 10 uM after 24 hrs by MTT assay relative to control; type: functional; set-up: scale not given: the % may be the effect or the level left
OVCAR-3 [3] = test: Growth inhibition of human OVCAR-3 cells at 10 uM after 24 hrs by MTT assay relative to control; type: functional; set-up: scale not given: the % may be the effect or the level left
OVCAR-5 = test: Growth inhibition of human OVCAR5 cells at 10 uM after 24 hrs by MTT assay relative to control; type: functional; set-up: scale not given: the % may be the effect or the level left
SN12C = test: Growth inhibition of human SN12C cells at 10 uM after 24 hrs by MTT assay relative to control; type: functional; set-up: scale not given: the % may be the effect or the level left
M14 = test: Growth inhibition of human M14 cells at 10 uM after 24 hrs by MTT assay relative to control; type: functional; set-up: scale not given: the % may be the effect or the level left
Malme-3M = test: Growth inhibition of human MALME-3M cells at 10 uM after 24 hrs by MTT assay relative to control; type: functional; set-up: scale not given: the % may be the effect or the level left
SK-MEL-2 = test: Growth inhibition of human SK-MEL-2 cells at 10 uM after 24 hrs by MTT assay relative to control; type: functional; set-up: scale not given: the % may be the effect or the level left
SK-MEL-5 = test: Growth inhibition of human SK-MEL-5 cells at 10 uM after 24 hrs by MTT assay relative to control; type: functional; set-up: scale not given: the % may be the effect or the level left
UACC-257 = test: Growth inhibition of human UACC257 cells at 10 uM after 24 hrs by MTT assay relative to control; type: functional; set-up: scale not given: the % may be the effect or the level left
UACC-62 = test: Growth inhibition of human UACC62 cells at 10 uM after 24 hrs by MTT assay relative to control; type: functional; set-up: scale not given: the % may be the effect or the level left
DU-145 [4] = test: Growth inhibition of human DU145 cells at 10 uM after 24 hrs by MTT assay relative to control; type: functional; set-up: scale not given: the % may be the effect or the level left
PC-3 [5] = test: Growth inhibition of human PC3 cells at 10 uM after 24 hrs by MTT assay relative to control; type: functional; set-up: scale not given: the % may be the effect or the level left
SF-539 = test: Growth inhibition of human SF539 cells at 10 uM after 24 hrs by MTT assay relative to control; type: functional; set-up: scale not given: the % may be the effect or the level left
U-251 = test: Growth inhibition of human U251 cells at 10 uM after 24 hrs by MTT assay relative to control; type: functional; set-up: scale not given: the % may be the effect or the level left
MOLT-4 = test: Growth inhibition of human MOLT4 cells after 24 hrs by MTT assay; type: functional; details: MOLT-4, 24 h
[6] = Growth inhibition of human […] cells after 24 hrs by MTT assay; type: functional
A549 = test: Growth inhibition of human A549 cells after 24 hrs by MTT assay; type: functional; details: A549, 24 h
HOP-92 = test: Growth inhibition of human HOP92 cells after 24 hrs by MTT assay; type: functional; details: HOP-92, 24 h
NCI-H322M = test: Growth inhibition of human NCI-H322M cells after 24 hrs by MTT assay; type: functional
NCI-H460 = test: Growth inhibition of human NCI-H460 cells after 24 hrs by MTT assay; type: functional; details: NCI-H460, 24 h
HCT-15 = test: Growth inhibition of human HCT15 cells after 24 hrs by MTT assay; type: functional; details: HCT-15, 24 h
KM12 [7] = test: Growth inhibition of human KM12 cells after 24 hrs by MTT assay; type: functional; details: KM12, 24 h
SF-268 = test: Growth inhibition of human SF268 cells after 24 hrs by MTT assay; type: functional; details: SF-268, 24 h
MDA-MB-435 = test: Growth inhibition of human MDA-MB-435 cells after 24 hrs by MTT assay; type: functional; details: MDA-MB-435, 24 h
IGROV-1 = test: Growth inhibition of human IGROV1 cells after 24 hrs by MTT assay; type: functional; details: IGROV-1, 24 h
OVCAR-3 [8] = test: Growth inhibition of human OVCAR-3 cells after 24 hrs by MTT assay; type: functional; details: OVCAR-3, 24 h
PC-3 [9] = test: Growth inhibition of human PC3 cells after 24 hrs by MTT assay; type: functional; details: PC-3, 24 h
DU-145 [10] = test: Growth inhibition of human DU145 cells after 24 hrs by MTT assay; type: functional; details: DU-145, 24 h
MCF7 [11] = test: Growth inhibition of human MCF7 cells after 24 hrs by MTT assay; type: functional; details: MCF7, 24 h
BT-549 = test: Growth inhibition of human BT549 cells after 24 hrs by MTT assay; type: functional; details: BT-549, 24 h
[12] = read-out: LC50 (the source's name)
[13] = read-out: pLC50 (the source's name) (converted)

SMILES: Cc1onc(-c2c3ccccc3c(Cl)c3ccccc23)c1C(=O)Nc1cc(C(=O)NCCCN(C)CCCNC(=O)c2cc(NC(=O)c3c(-c4c5ccccc5c(Cl)c5ccccc45)noc3C)cn2C)n(C)c1
- pIC50 (SNB-19): 5.32
- Activity (COLO 205): -100%
- Activity (HCC 2998): -91.29%
- Activity (KM12 [1]): -100%
- Activity (MCF7 [2]): -100%
- Activity (NCI/ADR-RES): 47.82%
- Activity (OVCAR-3 [3]): -100%
- Activity (OVCAR-5): -85.02%
- Activity (SN12C): -96.46%
- Activity (M14): -92.68%
- Activity (Malme-3M): -86.28%
- Activity (SK-MEL-2): -77.54%
- Activity (SK-MEL-5): -100%
- Activity (UACC-257): -60.8%
- Activity (UACC-62): -100%
- Activity (DU-145 [4]): -100%
- Activity (PC-3 [5]): -100%
- Activity (SF-539): -100%
- Activity (U-251): -100%
- TGI (MOLT-4): 2430 nM
- GI50 (MOLT-4; read-out: GI50): 615 nM
- CC50 (MOLT-4; [12]): 7960 nM
- GI50 (MOLT-4; read-out: pGI50 (converted)): 617 nM
- CC50 (MOLT-4; [13]): 7940 nM
- TGI [6]: 3380 nM
- GI50 ([6]; read-out: GI50): 1390 nM
- CC50 [6, 12]: 8210 nM
- GI50 ([6]; read-out: pGI50 (converted)): 1380 nM
- CC50 [6, 13]: 8130 nM
- TGI (A549): 2850 nM
- GI50 (A549; read-out: GI50): 1280 nM
- GI50 (A549; read-out: pGI50 (converted)): 1290 nM
- TGI (HOP-92): 2480 nM
- GI50 (HOP-92; read-out: GI50): 1220 nM
- CC50 (HOP-92; [12]): 5030 nM
- GI50 (HOP-92; read-out: pGI50 (converted)): 1230 nM
- CC50 (HOP-92; [13]): 5010 nM
- TGI (NCI-H322M): 4870 nM
- GI50 (NCI-H322M; read-out: GI50): 2180 nM
- CC50 (NCI-H322M; [12]): 14600 nM
- GI50 (NCI-H322M; read-out: pGI50 (converted)): 2190 nM
- CC50 (NCI-H322M; [13]): 14500 nM
- TGI (NCI-H460): 2230 nM
- GI50 (NCI-H460; read-out: GI50): 1050 nM
- CC50 (NCI-H460; [12]): 4720 nM
- GI50 (NCI-H460; read-out: pGI50 (converted)): 1050 nM
- CC50 (NCI-H460; [13]): 4680 nM
- TGI (HCT-15): 3700 nM
- GI50 (HCT-15; read-out: GI50): 1770 nM
- GI50 (HCT-15; read-out: pGI50 (converted)): 1780 nM
- TGI (KM12 [7]): 2630 nM
- GI50 (KM12 [7]; read-out: GI50): 1350 nM
- GI50 (KM12 [7]; read-out: pGI50 (converted)): 1350 nM
- TGI (SF-268): 2900 nM
- GI50 (SF-268; read-out: GI50): 1390 nM
- GI50 (SF-268; read-out: pGI50 (converted)): 1380 nM
- TGI (MDA-MB-435): 3400 nM
- GI50 (MDA-MB-435; read-out: GI50): 1900 nM
- GI50 (MDA-MB-435; read-out: pGI50 (converted)): 1910 nM
- TGI (IGROV-1): 3260 nM
- GI50 (IGROV-1; read-out: GI50): 1430 nM
- CC50 (IGROV-1; [12]): 7420 nM
- GI50 (IGROV-1; read-out: pGI50 (converted)): 1450 nM
- CC50 (IGROV-1; [13]): 7410 nM
- TGI (OVCAR-3 [8]): 2610 nM
- GI50 (OVCAR-3 [8]; read-out: GI50): 1310 nM
- CC50 (OVCAR-3 [8]; [12]): 5190 nM
- GI50 (OVCAR-3 [8]; read-out: pGI50 (converted)): 1320 nM
- CC50 (OVCAR-3 [8]; [13]): 5130 nM
- TGI (PC-3 [9]): 2690 nM
- GI50 (PC-3 [9]; read-out: GI50): 1400 nM
- CC50 (PC-3 [9]; [12]): 5190 nM
- GI50 (PC-3 [9]; read-out: pGI50 (converted)): 1410 nM
- CC50 (PC-3 [9]; [13]): 5250 nM
- TGI (DU-145 [10]): 2600 nM
- GI50 (DU-145 [10]; read-out: GI50): 1330 nM
- CC50 (DU-145 [10]; [12]): 5100 nM
- GI50 (DU-145 [10]; read-out: pGI50 (converted)): 1320 nM
- CC50 (DU-145 [10]; [13]): 5130 nM
- TGI (MCF7 [11]): 2400 nM
- GI50 (MCF7 [11]; read-out: GI50): 1180 nM
- CC50 (MCF7 [11]; [12]): 4900 nM
- GI50 (MCF7 [11]; read-out: pGI50 (converted)): 1170 nM
- CC50 (MCF7 [11]; [13]): 4900 nM
- TGI (BT-549): 10200 nM
- GI50 (BT-549; read-out: GI50): 2920 nM
- CC50 (BT-549; [12]): 100000 nM
- GI50 (BT-549; read-out: pGI50 (converted)): 2950 nM
- CC50 (BT-549; [13]): > 100000 nM
